4 compounds from US20260209777A1, “TARGETING GLYCOSYLPHOSPHATIDYLINOSITOL (GPI) PATHWAY PROTEINS TO TREAT OVARIAN CANCER” (UNIVERSITY OF MASSACHUSETTS, priority 2023, published 2026) can be followed below.

Common to all, as to assay type: cell-based, human
In experiment [1] the test system is CD24 cell surface expression in OVCAR8 cells. The experiment in a line: CD24 flow cytometry analysis in OVCAR8 cells. The note with it: OVCAR8; 3 days; bestatin 10 or 20 μM, tosedostat 5 or 10 μM, ARM1 1 or 2 μM; vs DMSO. On the procedure: (§1) Flow Cytometry Analysis: For cell surface protein staining, 1×10^5-1×10^6 cells were first incubated with Fc receptor blocking solution, Human TruStain FcXTM (BioLegend, Cat #422301) for 10 minutes at room temperature. Cells were washed once in FACS buffer (1×PBS, 1.0% bovine serum albumin (BSA) (Sigma) and 0.2% sodium azide (Sigma), and then incubated with antibodies (given below) for 30 minutes at 4° C. in the dark. Cells were also stained with 7-AAD (Biolegend, Cat #420404) for dead cell exclusion, and flow cytometry analysis was performed using a Bio-Rad ZE5 Cell Analyzer. Following antibodies used in this study (all antibodies were used at 1:50 dilution unless otherwise noted): APC anti-human CD24 (BioLegend, Cat #311118, clone ML5), PE anti-human CD24 (eBioscience, Cat #12-0247-42, clone SN3), APC anti-human CD47 (BioLegend, Cat #323124, clone CC2C6), APC anti-human § 2-microglobulin (BioLegend, Cat #395711, clone […]), PE anti-human HLA-A2 (MHC-class I) (BioLegend, Cat #343305, clone BB7.2), APC anti-human CD11b (BioLegend, Cat #982604, clone ICRF44), APC anti-mouse F4/80 antibody (BioLegend, Cat #123116, clone BM8), APC-streptavidin (Thermo Fisher Scientific, Cat #SA1005, 1:100 dilution), PE anti-Calreticulin (Invitrogen, Catalog #MA5-15382, 1:200 dilution). For intracellular staining, cells were fixed with 1% paraformaldehyde for 5 min and permeabilized using the True-Nuclear Transcription Factor Buffer Set (BioLegend, Cat #424401) before the addition of the antibody. Small Molecule Inhibitor and Drug Treatments: OVCAR8 or SKOV3 cells were treated for 3 days with bestatin (Ubenimex) (SelleckChem, Cat #S1591) at 5, 10 or 20 μM (as indicated in the figure legends), Tosedostat (Medchem Express, Cat #HY-14807) at 5 μM or 10 μM (as indicated in the figure legends) or ARM-1 (Medchem Express, Cat #HY-W027340) at 1, or 2 μM (as indicated in the figure legends). Inhibitors were replenished every 24 hours. DMSO (Sigma Aldrich, Cat #D8418) was used as a vehicle. OVCAR8 cells were treated with Docetaxel (SelleckChem, Cat #S1148) at 100 nM or Carboplatin (SelleckChem, Cat #S1215 at 100 nM or Doxorubicin (SelleckChem, Cat #E2516) at 50 nM for 12 hours.
(In flow cytometry, cells or beads pass a laser one at a time.)

The test system of a further experiment is OVCAR8 cells. The experiment in a line: In vitro phagocytosis assay of OVCAR8 cells by PBMC-derived M2 macrophages. The settings on record: OVCAR8; bestatin 20 μM, tosedostat 20 μM, ARM1 2 μM; vs DMSO. The text has this: Macrophage Generation and Stimulation: Primary human donor-derived macrophages were generated as described previously (Martinez, Curr Protocol Immunol 2012, Chapter 14:14.28.1-14.28.23). In brief, Leukopaks from anonymous donors were obtained from the Rhode Island Blood (Providence, RI) and peripheral blood […] (PBMCs) were isolated by density gradients centrifugation using Ficoll Paque Plus (Sigma-Aldrich, Cat #17-1440-02) followed by RBC lysis using RBC lysis buffer (eBioscience, Cat #00-4333-57). For monocyte isolation, PBMCs were incubated in Monocyte Attachment Medium (Sigma-Aldrich, Cat #C-28051) for 1 hour at 37° C. and 5% CO2 and then washed three times in Iscove's Modified Dulbecco's Medium (IMDM) (Gibco, Cat #12440053) to remove non-adherent cells. The remaining monocytes were detached and seeded in 96-well plates and cultured at 37° C. and 5% CO2 in IMDM supplemented with 10% FBS (Atlanta Biologicals, Cat #S11550) and 20 ng/ml recombinant human M-CSF (Peprotech, Cat #AF-300-25). After 4 days monocytes were then treated with 20 ng/ml recombinant human IL-4 (Peprotech, Cat #200-04) and 10 ng/mL recombinant human IL-10 (PeproTech, Cat #200-10) for another 3-4 days to obtain M2 polarized macrophages. Macrophage differentiation was confirmed morphologically using microscopy. M2-macrophage polarization was confirmed by immunophenotyping of the M2 marker CD206 using PE-conjugated anti-human anti-CD206 antibody (BioLegend, Cat #321106, clone 15-2, 1:100 dilution). In vitro Phagocytosis Assays: To facilitate the quantification of phagocytic events, we adapted a microscopy-based fluorescence phagocytosis […] al., J Immunol Methods 2009, 342(1-2):71-7; Lindner et al., Biotechniques 2020, 68(5):245-250) for use with a Celigo imaging cytometer. […] Cells were incubated with pHrodo Red, SE (Invitrogen, Cat #P36600) on ice for 30 min and then co-cultured with PBMC-derived M2 macrophages (prepared as described above) at a ratio of 1:2 (OVCAR8/B cells: macrophages) for 2 hours in a humidified 5% CO2 incubator at 37° C. Phagocytic events were quantified by counting the number of red fluorescent (pHrodo+) cells per well using a Celigo Imaging Cytometer (Nexcelom). EmGFP was used for the visualization of cancer cells in imaging Phagocytic events were also quantified using a previously-described flow cytometry-based assay (Barkal et al., Nature 2019, 572(7769):392-396; […] et al., Biomedicines 2022, 10(5):1175). In brief, M2 macrophages co-cultured with OVCAR8/EmGFP-luc cells were detached using TrypLE Express (GibcoTM, cat #12604013), stained with APC anti-human CD11b clone ICRF44 (BioLegend, Cat #982604) and analyzed by flow cytometry (BioRad ZE5). Double-positive EmGFP+CD11b+ cells were considered phagocytic events.

Experiment [2] concerns CALR cell surface expression in OVCAR8 cells. The experiment in a line: Flow cytometry analysis of Calreticulin (CALR) in OVCAR8 cells. The settings on record: OVCAR8, 12 hours; docetaxel 100 nM, carboplatin 100 nM, doxorubicin 50 nM; vs DMSO (FIG. 11A). As to the method:
as §1, with “OVCAR8 cells were treated with Docetaxel (SelleckChem, Cat #S1148) at 100 nM or Carboplatin (SelleckChem, Cat #S1215 at 100 nM or Doxorubicin (SelleckChem, Cat #E2516) at 50 nM for 12 hours.” left out

Molecules are shown by their SMILES.

As for `Nc1nc(-c2ccc(Cc3ccccc3)cc2)cs1` [ARM1], the “CD24 cell surface expression (MFI)” value in experiment [1] is reported as “decreased”. Besides, the macrophage-mediated phagocytosis entry in the experiment with OVCAR8 cells is given as “increased”.
As to `N.N.O=C([O-])C1(C(=O)[O-])CCC1.[Pt+2]` [carboplatin], in experiment [2], the “CALR cell surface expression” value is “did not”.
Same read-out and setting: the same measure for `CC(=O)O[C@@]12CO[C@@H]1C[C@H](O)[C@@]1(C)C(=O)[C@H](O)C3=C(C)[C@@H](OC(=O)[C@H](O)[C@@H](NC(=O)OC(C)(C)C)c4ccccc4)C[C@@](O)([C@@H](OC(=O)c4ccccc4)[C@H]21)C3(C)C` [docetaxel]: “induced robust”.
On the same count and under the same terms, the same measure for `COc1cccc2c1C(=O)c1c(O)c3c(c(O)c1C2=O)C[C@@](O)(C(=O)CO)C[C@@H]3O[C@H]1C[C@H](N)[C@H](O)[C@H](C)O1` [doxorubicin]: “did not”.
